ChEMBL document CHEMBL1133592, “trans-1-[(2-Phenylcyclopropyl)methyl]-4-arylpiperazines: mixed dopamine D(2)/D(4) receptor antagonists as potential antipsychotic agents” (J Med Chem, 2000)

Key:
[1] = molecular target: T1, Adrenergic receptor alpha-1 (Rattus norvegicus, UniProt P15823+P23944+P43140)
T1 sequence (P15823 whole entry): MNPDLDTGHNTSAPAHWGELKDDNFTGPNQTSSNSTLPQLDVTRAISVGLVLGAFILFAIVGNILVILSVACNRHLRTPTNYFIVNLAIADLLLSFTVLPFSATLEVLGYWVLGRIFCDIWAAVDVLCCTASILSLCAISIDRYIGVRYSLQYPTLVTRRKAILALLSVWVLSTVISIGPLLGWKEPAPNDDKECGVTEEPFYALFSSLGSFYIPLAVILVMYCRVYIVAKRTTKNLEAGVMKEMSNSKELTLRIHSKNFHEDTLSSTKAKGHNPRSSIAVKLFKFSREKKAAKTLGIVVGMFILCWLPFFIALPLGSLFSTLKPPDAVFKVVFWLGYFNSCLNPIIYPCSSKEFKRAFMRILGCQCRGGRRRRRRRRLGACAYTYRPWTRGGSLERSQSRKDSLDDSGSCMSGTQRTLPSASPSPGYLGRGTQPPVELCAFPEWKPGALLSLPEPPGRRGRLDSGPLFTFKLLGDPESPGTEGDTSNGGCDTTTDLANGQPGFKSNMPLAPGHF
T1 sequence (P23944 whole entry): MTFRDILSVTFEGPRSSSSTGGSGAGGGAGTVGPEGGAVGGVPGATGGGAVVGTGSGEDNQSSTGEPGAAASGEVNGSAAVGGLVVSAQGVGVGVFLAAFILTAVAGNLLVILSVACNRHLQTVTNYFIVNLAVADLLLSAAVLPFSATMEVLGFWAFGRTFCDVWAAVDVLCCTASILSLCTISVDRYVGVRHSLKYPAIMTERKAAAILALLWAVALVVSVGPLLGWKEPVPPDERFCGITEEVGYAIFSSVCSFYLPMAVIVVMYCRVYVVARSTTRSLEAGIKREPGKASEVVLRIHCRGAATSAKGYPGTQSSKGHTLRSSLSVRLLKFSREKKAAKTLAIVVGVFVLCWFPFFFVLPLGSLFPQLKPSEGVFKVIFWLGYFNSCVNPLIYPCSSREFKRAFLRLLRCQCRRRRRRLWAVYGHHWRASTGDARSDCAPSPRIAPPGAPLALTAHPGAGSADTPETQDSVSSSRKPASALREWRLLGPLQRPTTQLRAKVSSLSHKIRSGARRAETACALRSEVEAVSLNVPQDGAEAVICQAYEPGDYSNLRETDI
T1 sequence (P43140 whole entry): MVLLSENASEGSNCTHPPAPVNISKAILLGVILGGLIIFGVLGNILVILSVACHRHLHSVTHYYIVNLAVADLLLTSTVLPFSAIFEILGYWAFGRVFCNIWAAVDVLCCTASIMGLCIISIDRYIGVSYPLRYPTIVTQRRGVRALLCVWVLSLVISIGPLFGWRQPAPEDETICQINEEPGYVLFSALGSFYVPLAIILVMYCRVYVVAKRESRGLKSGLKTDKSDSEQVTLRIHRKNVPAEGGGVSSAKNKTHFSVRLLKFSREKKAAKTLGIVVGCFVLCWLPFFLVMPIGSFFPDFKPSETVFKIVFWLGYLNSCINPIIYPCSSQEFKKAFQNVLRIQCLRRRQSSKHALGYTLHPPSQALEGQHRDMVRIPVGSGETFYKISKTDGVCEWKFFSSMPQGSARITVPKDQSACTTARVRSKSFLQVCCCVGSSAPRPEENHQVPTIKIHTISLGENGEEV
Description: Binding affinity to alpha-1 adrenergic receptor from rat brain homogenate, using [3H]- prazosin as the competitive ligand

Rattus norvegicus [2] = species: Rattus norvegicus; test: animal or person; settings: read-out: MED
Description: Minimum effective dose that produced a significant effect relative to the amphetamine alone control using a Fisher's LSD post hoc test (P<0.05)

[3] = Half-life determined upon exposure to human liver microsomes; type: ADME, Microsome
[4] = Half-life determined upon exposure to rat liver microsomes; type: ADME, Microsome
Rattus norvegicus [5] = species: Rattus norvegicus; test: animal or person; settings: read-out: MED; remark: listed apart in the source
Description: Minimum effective dose observed in rat catalepsy experiments

Compound	IC50 [1] [µM]	also measured
Br.COc1ccc([C@H]2C[C@@H]2CN2CCN(c3ccc(Cl)cc3Cl)CC2)cc1 (racemic)	0.061	–
Br.COc1ccc(N2CCN(C[C@H]3C[C@@H]3c3ccccc3)CC2)cc1 (racemic)	0.633	–
Br.Clc1cccc(N2CCN(C[C@H]3C[C@@H]3c3ccccc3)CC2)c1 (racemic)	0.07	–
Br.c1ccc([C@H]2C[C@@H]2CN2CCN(c3ccncc3)CC2)cc1 (racemic)	> 10	–
CN1CCN(C2=Nc3cc(Cl)ccc3Nc3ccccc32)CC1 [CLOZAPINE]	–	minimal effective dose (Rattus norvegicus [2]): 0.5 mg/kg
Br.Clc1ccc(N2CCN(C[C@H]3C[C@@H]3c3ccccc3)CC2)cc1 (racemic)	0.081	–
Cl.c1ccc([C@H]2C[C@@H]2CN2CCN(c3ncccn3)CC2)cc1 (racemic)	0.168	–
Br.Cc1cc(F)ccc1N1CCN(C[C@H]2C[C@@H]2c2ccccc2)CC1	0.031	–
Br.Clc1ccc(N2CCN(C[C@H]3C[C@@H]3c3ccccc3)CC2)c(Cl)c1 (racemic)	0.311	–
Br.Clc1cccc(N2CCN(C[C@H]3C[C@@H]3c3ccccc3)CC2)c1Cl (racemic)	0.329	–
Br.Oc1ccc([C@H]2C[C@@H]2CN2CCN(c3ccc(Cl)cc3Cl)CC2)cc1 (racemic)	0.074	–
Br.Br.COc1cc(F)ccc1N1CCN(C[C@H]2C[C@@H]2c2ccccc2)CC1	0.014	–
Br.Cc1cc(Cl)ccc1N1CCN(C[C@H]2C[C@@H]2c2ccccc2)CC1	0.307	–
Clc1ccc(N2CCN(C[C@@H]3C[C@H]3c3ccccc3)CC2)c(Cl)c1	0.348	–
Br.COc1cc(Cl)ccc1N1CCN(C[C@H]2C[C@@H]2c2ccccc2)CC1	0.029	–
Br.Fc1ccc([C@H]2C[C@@H]2CN2CCN(c3ccc(Cl)cc3)CC2)cc1 (racemic)	0.061	–

Compound	IC50 [1] [µM]	also measured
Br.Clc1cc(Cl)cc(N2CCN(C[C@H]3C[C@@H]3c3ccccc3)CC2)c1 (racemic)	1.341	–
Br.Clc1ccc(N2CCN(C[C@H]3C[C@@H]3c3ccccc3)CC2)cc1Cl (racemic)	0.045	–
Br.COc1ccc(Cl)cc1N1CCN(C[C@H]2C[C@@H]2c2ccccc2)CC1 (racemic)	0.008	–
Br.Cc1ccc(N2CCN(CC3CC3c3ccccc3)CC2)c(C)c1 (racemic)	0.144	–
Br.Cc1ccc(N2CCN(C[C@@H]3C[C@H]3c3ccccc3)CC2)c(C)c1	0.131	half-life [3]: 16 min; half-life [4]: 3 min
Br.Fc1ccc([C@H]2C[C@@H]2CN2CCN(c3ccccc3Cl)CC2)cc1 (racemic)	0.009	–
Br.COc1c(Cl)cc(N2CCN(C[C@H]3C[C@@H]3c3ccccc3)CC2)cc1Cl (racemic)	0.193	–
Br.c1ccc([C@H]2C[C@@H]2CN2CCN(c3cccnc3)CC2)cc1 (racemic)	> 1.246	–
Br.Cc1ccc(N2CCN(C[C@H]3C[C@@H]3c3ccccc3)CC2)c(C)c1	0.137	–
Cl.c1ccc([C@H]2C[C@@H]2CN2CCN(c3ccccn3)CC2)cc1 (racemic)	0.055	–
c1ccc([C@H]2C[C@@H]2CN2CCN(c3ccccc3)CC2)cc1 (racemic)	0.022	–
Br.Clc1ccc(N2CCN(C[C@H]3C[C@@H]3c3ccccc3)CC2)c(Cl)c1	0.322	half-life [3]: 19 min; half-life [4]: 2 min
Br.COc1cccc(N2CCN(C[C@H]3C[C@@H]3c3ccccc3)CC2)c1 (racemic)	0.324	–
O=C(CCCN1CCC(O)(c2ccc(Cl)cc2)CC1)c1ccc(F)cc1 [HALOPERIDOL]	–	minimal effective dose (Rattus norvegicus [2]): 0.06 mg/kg; minimal effective dose (Rattus norvegicus [5]): 0.5 mg/kg
Br.Clc1ccccc1N1CCN(C[C@H]2C[C@@H]2c2ccccc2)CC1 (racemic)	0.01	–
